We go through two compounds from ChEMBL document CHEMBL5463728, “Data for DCP probe BAY-6096” (2023).

As usually defined, the inhibition is the drop in the measured response relative to a control, in per cent. The IC50 is the concentration that inhibits the measured activity by half. The low end stands for inhibition by little substance, the high end for a need for much substance. In general, pKi refers to the Ki on a negative log10 scale, so that one unit is a factor of ten.

Series [1] addresses Prostaglandin G/H synthase 2 (Homo sapiens) (UniProt P35354). The experiment in a line: Inhibition of Cyclooxygenase COX-2 at compound concentration of 10.0 uM in the Eurofins-Panlabs enzyme assay (Eurofins_assay_118010). The following applies: Compound concentration 10.0 uM. Also on record: substrate with concentration 0.3 uM Arachidonic acid, incubation time 15 min, incubation temperature 37 C.

Series [2] deals with Sodium-dependent dopamine transporter (Homo sapiens) (UniProt Q01959). As to conditions: Compound concentration 10.0 uM; call rule not given here.
Series [3] addresses Purinergic P2Y (Rattus norvegicus) (UniProt O35811+Q9EPX4+P49651+Q63371+P41232+O35881+Q6GUG4). As to conditions: Compound concentration 10.0 uM.
Series [4] has as its target Kappa-type opioid receptor (Homo sapiens) (UniProt P41145). As to conditions: Compound concentration 10.0 uM.
In series [5] the target is Muscarinic acetylcholine receptor M3 (Homo sapiens) (UniProt P20309). The following applies: Compound concentration 10.0 uM.
The target in series [6] is Adenosine Transporter (Cavia porcellus) (UniProt H0V4R7+H0UUG1+H0V3Z5). The experiment in a line: Inhibition of Transporter, Adenosine at compound concentration of 10.0 uM in the Eurofins-Panlabs radioligand binding assay (Eurofins_assay_202000). Format: protein assay. Also noted: ligand concentration 0.5 nM, non-specific ligand with concentration 5 uM Nitrobenzylthioinosine, incubation time 30 min, incubation temperature 25 C. As to conditions: Compound concentration 10.0 uM.

The target in series [7] is Endothelin receptor type B (Homo sapiens) (UniProt P24530). As to conditions: Compound concentration 10.0 uM.
Sequence of Endothelin receptor type B (Homo sapiens) (P24530 whole entry): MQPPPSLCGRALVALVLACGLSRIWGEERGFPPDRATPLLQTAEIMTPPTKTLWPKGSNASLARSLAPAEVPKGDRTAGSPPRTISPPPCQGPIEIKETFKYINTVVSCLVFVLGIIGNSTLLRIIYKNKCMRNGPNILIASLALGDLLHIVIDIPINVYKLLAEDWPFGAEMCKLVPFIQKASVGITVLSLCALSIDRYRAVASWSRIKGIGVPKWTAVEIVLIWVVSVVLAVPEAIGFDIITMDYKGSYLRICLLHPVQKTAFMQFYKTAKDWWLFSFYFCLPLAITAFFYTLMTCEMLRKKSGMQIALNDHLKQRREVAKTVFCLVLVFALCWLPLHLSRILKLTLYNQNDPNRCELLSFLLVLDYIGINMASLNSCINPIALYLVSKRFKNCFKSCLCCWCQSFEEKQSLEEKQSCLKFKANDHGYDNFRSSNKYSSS
Series [8] concerns the target Monoamine oxidase A (MAO-A) (Homo sapiens, UniProt P21397). The experiment in a line: Inhibition of Monoamine Oxidase MAO-A at compound concentration of 10.0 uM in the Eurofins-Panlabs enzyme assay (Eurofins_assay_140010). As to conditions: recombinant human MAO-A expressed in insect Hi5 cells, probe Kynuramine (50 uM), compound concentration 10 uM. Also on record: substrate with concentration 50 uM Kynuramine, incubation time 60 min, incubation temperature 37 C.

For series [9], the target named is Type-2 angiotensin II receptor (Homo sapiens) (UniProt P50052). The following applies: Compound concentration 10.0 uM.
Series [10] concerns the target Muscarinic acetylcholine receptor M1 (Homo sapiens) (UniProt P11229). As to conditions: Compound concentration 10.0 uM.
The target in series [11] is Mu-type opioid receptor (Homo sapiens) (UniProt P35372). As to conditions: Compound concentration 10.0 uM.
Series [12] deals with Nitric oxide synthase, inducible (Homo sapiens) (UniProt P35228). The experiment in a line: Inhibition of Nitric Oxide Synthase, Inducible (iNOS) at compound concentration of 10.0 uM in the Eurofins-Panlabs enzyme assay (Eurofins_assay_199010). Also on record: substrate with concentration. As to conditions: Mus musculus; Compound concentration 10.0 uM.
Series [13] addresses Endothelin-1 receptor (Homo sapiens) (UniProt P25101). As to conditions: Compound concentration 10.0 uM.
Series [14] has as its target Sodium-dependent noradrenaline transporter (Homo sapiens) (UniProt P23975). As to conditions: Compound concentration 10.0 uM.
Series [15] has as its target Histamine H2 receptor (Homo sapiens) (UniProt P25021). As to conditions: Compound concentration 10.0 uM.
Series [16] addresses Acetylcholinesterase (Homo sapiens) (UniProt P22303). The following applies: Compound concentration 10.0 uM.
In series [17] the target is Glutamate receptor ionotropic, kainate (Rattus norvegicus) (UniProt P22756+Q01812+P42260+P42264+Q63273). The following applies: Compound concentration 10.0 uM.
The target in series [18] is GABA-A receptor; anion channel (Rattus norvegicus) (UniProt O09028+P15431+P18506+P18508+P19969+P20236+P23574+P23576+P28471+P28473+P30191+P62813+P63079+P63138+Q91ZM7+Q9ES14). The following applies: Compound concentration 10.0 uM.
In series [19] the target is Phosphodiesterase 3 (Homo sapiens) (UniProt Q14432+Q13370). The experiment in a line: Inhibition of Phosphodiesterase PDE3 at compound concentration of 10.0 uM in the Eurofins-Panlabs enzyme assay (Eurofins_assay_152000). Format: protein assay. Also on record: substrate with concentration 1.01 uM [3H] cAMP + cAMP, incubation time 20 min, incubation temperature 25 C. As to conditions: Compound concentration 10.0 uM.

For series [20], the target named is Aldo-keto reductase family 1 member B1 (Rattus norvegicus) (UniProt P07943). Description: Inhibition of Aldose Reductase at compound concentration of 10.0 uM in the Eurofins-Panlabs enzyme assay (Eurofins_assay_107000). Also on record: substrate with concentration. As to conditions: Compound concentration 10.0 uM.
The target in series [21] is Alpha-1B adrenergic receptor (Homo sapiens, UniProt P35368). The experiment in a line: Adrenoceptor reporter cell assay (ADRA1B). Format: functional.
Sequence of Alpha-1B adrenergic receptor (P35368 whole entry): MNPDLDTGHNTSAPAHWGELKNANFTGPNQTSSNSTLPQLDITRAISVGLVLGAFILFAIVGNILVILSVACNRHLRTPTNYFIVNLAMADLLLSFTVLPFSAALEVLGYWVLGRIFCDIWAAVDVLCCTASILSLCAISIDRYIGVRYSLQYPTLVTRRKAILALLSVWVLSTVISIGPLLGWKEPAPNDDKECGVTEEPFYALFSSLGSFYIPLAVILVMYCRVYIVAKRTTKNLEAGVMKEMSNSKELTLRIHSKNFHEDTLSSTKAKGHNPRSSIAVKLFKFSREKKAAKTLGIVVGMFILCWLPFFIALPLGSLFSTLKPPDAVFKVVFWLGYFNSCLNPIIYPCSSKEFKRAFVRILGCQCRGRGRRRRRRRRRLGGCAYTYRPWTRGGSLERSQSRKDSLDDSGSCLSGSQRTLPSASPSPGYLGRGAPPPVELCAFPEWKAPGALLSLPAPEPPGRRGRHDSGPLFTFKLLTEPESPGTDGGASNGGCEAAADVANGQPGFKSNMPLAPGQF
Series [22] deals with Adenosine receptor A3 (Homo sapiens) (UniProt P0DMS8). As to conditions: Compound concentration 10.0 uM.
Series [23] deals with Delta-type opioid receptor (Homo sapiens) (UniProt P41143). As to conditions: Compound concentration 10.0 uM.
Sequence of Delta-type opioid receptor (Homo sapiens) (P41143 whole entry): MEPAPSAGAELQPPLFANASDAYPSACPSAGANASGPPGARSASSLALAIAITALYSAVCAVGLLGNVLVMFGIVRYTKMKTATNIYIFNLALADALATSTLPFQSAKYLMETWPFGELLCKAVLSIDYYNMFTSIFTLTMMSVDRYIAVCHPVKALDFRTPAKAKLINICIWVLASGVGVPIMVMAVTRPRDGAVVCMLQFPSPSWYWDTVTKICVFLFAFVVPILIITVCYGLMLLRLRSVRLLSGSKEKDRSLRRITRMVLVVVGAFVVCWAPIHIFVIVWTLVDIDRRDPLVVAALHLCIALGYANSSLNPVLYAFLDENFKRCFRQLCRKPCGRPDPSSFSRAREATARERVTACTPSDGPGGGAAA
In series [24] the target is Glutamate NMDA receptor (Rattus norvegicus) (UniProt P35439+Q00959+Q00960+Q00961+Q62645+Q8VHN2+Q9R1M7). The following applies: Compound concentration 10.0 uM.
Series [25] deals with Growth hormone secretagogue receptor type 1 (Homo sapiens) (UniProt Q92847). The following applies: Compound concentration 10.0 uM.
Series [26] concerns the target T1, 5-hydroxytryptamine receptor 2C (Homo sapiens) (UniProt P28335).
T1 sequence (whole entry): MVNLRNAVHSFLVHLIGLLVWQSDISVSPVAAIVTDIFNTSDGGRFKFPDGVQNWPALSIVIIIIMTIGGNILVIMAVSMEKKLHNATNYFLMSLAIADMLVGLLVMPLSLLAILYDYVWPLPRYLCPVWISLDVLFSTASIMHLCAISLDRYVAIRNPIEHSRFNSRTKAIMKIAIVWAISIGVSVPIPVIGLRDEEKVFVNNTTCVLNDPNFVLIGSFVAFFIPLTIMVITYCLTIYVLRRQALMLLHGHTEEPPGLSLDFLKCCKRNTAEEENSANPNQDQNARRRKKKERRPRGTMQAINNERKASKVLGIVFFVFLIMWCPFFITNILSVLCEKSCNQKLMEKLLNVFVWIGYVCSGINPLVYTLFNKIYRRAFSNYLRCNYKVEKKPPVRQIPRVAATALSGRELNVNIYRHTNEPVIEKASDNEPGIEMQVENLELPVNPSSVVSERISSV
The following applies: Compound concentration 10.0 uM.

Series [27] concerns the target Histamine H1 receptor (Homo sapiens) (UniProt P35367). The following applies: Compound concentration 10.0 uM.
Series [28] concerns the target Vasopressin V1a receptor (Homo sapiens) (UniProt P37288). The following applies: Compound concentration 10.0 uM.
The target in series [29] is Glutamate receptor 2 (Homo sapiens) (UniProt P42262). The following applies: Rattus norvegicus; Compound concentration 10.0 uM.
For series [30], the target named is D(3) dopamine receptor (Homo sapiens) (UniProt P35462). As to conditions: Compound concentration 10.0 uM.
Sequence of D(3) dopamine receptor (Homo sapiens) (P35462 whole entry): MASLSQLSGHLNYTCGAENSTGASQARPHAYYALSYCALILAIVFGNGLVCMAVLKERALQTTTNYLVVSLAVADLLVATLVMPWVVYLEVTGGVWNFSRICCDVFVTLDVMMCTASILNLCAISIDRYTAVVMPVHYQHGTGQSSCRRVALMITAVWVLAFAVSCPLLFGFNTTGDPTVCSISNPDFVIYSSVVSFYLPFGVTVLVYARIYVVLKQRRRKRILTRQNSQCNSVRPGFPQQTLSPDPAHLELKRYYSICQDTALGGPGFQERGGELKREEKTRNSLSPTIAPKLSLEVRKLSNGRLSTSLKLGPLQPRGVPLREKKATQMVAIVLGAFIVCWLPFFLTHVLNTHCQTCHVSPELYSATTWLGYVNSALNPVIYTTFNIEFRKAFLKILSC
Series [31] addresses 5-hydroxytryptamine receptor 1A (Homo sapiens, UniProt P08908). The experiment in a line: GPCRScan assay: inhibition of 5-HT1A. Also noted: radioligand conc. used [nm] 0.5 – 1.0, parental cells stable CHO.
Series [32] addresses Muscarinic acetylcholine receptor M1 (Homo sapiens) (UniProt P11229). The following applies: Compound concentration 10.0 uM. The source holds these as a separate data set.

pKi: −log10 of the molar value.

Sequence of Muscarinic acetylcholine receptor M1 (Homo sapiens) (P11229 whole entry): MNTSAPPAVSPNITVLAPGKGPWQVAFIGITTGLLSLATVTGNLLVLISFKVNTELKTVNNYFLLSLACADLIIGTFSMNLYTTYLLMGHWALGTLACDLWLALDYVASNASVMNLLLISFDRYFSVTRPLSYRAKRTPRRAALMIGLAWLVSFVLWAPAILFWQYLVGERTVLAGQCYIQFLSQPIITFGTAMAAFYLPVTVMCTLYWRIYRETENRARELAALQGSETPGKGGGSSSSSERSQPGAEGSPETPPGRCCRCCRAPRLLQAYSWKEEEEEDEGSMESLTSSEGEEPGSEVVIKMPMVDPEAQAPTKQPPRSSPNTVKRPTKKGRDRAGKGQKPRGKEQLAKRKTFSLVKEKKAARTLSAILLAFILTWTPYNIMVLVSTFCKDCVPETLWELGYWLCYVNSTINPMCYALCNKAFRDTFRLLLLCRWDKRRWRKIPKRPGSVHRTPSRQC
Sequence of 5-hydroxytryptamine receptor 1A (P08908 whole entry): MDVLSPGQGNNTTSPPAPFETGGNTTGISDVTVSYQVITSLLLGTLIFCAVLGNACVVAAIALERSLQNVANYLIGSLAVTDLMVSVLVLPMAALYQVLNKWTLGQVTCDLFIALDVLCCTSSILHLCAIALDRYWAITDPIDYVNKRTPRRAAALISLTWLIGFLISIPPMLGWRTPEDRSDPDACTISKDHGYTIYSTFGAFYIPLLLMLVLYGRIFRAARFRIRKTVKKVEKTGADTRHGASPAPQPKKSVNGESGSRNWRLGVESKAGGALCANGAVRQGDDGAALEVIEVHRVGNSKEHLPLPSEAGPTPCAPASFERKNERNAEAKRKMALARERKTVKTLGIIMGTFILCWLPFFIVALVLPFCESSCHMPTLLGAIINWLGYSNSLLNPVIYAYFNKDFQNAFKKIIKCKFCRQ
Sequence of Histamine H1 receptor (Homo sapiens) (P35367 whole entry): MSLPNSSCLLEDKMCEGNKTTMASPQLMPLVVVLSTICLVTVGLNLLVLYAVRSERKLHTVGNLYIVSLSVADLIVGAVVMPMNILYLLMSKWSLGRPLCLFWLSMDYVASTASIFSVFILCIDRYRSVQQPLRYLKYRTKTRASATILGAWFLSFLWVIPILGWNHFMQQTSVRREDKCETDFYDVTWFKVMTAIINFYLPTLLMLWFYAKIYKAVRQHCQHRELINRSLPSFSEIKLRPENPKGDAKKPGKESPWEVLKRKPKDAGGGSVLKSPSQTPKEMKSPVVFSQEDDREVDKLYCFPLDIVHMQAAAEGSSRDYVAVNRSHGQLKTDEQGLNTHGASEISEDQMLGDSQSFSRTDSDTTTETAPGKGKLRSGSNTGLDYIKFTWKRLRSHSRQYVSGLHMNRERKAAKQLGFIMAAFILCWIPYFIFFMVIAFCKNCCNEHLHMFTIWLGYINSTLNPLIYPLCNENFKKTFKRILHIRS
Sequence of Sodium-dependent noradrenaline transporter (Homo sapiens) (P23975 whole entry): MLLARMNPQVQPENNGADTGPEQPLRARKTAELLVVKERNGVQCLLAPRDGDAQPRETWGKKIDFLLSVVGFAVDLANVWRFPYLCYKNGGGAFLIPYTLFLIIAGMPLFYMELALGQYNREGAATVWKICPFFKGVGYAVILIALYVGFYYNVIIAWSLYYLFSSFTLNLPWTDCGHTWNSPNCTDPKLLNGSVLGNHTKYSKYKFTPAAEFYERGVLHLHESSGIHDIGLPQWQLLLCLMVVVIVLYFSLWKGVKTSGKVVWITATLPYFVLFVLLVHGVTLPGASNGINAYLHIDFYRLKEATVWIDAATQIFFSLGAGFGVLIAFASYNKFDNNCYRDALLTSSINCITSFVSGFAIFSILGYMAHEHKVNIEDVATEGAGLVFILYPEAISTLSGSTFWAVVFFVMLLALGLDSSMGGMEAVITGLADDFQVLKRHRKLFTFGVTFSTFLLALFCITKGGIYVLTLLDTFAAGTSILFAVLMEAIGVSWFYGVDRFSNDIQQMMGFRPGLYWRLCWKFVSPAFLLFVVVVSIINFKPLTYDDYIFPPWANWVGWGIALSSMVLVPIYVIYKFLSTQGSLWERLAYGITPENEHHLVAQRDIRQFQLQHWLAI
Sequence of Monoamine oxidase A (MAO-A) (P21397 whole entry): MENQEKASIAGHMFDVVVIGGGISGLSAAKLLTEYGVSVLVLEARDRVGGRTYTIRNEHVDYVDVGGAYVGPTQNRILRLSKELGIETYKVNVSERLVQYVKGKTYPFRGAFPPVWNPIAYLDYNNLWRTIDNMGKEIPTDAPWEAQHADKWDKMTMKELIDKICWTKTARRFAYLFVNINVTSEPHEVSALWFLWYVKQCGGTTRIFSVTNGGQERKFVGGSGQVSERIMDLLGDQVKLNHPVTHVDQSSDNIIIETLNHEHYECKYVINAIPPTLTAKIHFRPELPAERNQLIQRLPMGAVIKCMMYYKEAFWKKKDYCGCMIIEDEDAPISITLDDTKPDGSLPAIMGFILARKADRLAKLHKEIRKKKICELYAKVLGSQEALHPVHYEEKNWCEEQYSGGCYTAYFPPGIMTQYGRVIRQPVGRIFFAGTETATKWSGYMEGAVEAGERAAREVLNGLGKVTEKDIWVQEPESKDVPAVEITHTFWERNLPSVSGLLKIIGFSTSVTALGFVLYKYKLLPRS
Sequence of Endothelin-1 receptor (Homo sapiens) (P25101 whole entry): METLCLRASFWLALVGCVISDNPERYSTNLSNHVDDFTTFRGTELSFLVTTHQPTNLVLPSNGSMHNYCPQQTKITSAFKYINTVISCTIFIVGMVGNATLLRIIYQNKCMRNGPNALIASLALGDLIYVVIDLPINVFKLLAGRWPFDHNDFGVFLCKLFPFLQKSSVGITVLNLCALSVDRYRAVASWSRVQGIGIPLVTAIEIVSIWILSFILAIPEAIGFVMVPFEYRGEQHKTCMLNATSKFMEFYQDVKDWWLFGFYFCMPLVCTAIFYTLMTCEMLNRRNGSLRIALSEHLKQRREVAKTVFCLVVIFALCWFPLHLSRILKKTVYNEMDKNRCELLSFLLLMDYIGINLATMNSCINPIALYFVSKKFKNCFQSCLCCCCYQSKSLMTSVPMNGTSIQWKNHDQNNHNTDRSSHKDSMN

For `CNc1cc[n+](CCNC(=O)c2ccn3c(-c4c(C)noc4C)cnc3c2)cc1`, the inhibition in series [1] was -8.7%; in series [2], 20.3%; in series [3] it was 10.6%; in [4] it was 0.5%; in series [5] it was -0.2%; in series [6], -2.2%. The inhibition in series [7] was -2.3%; in [9] it was 4.1%; in [10], -4.1%; in series [11], 0.1%; in series [12], 6.3%; in series [13] it was -2.2%. The inhibition was 2.7% in [14]; -0.4% in series [15]; 14.8% in series [16]; 0.2% in series [17]; -1.9% in series [18]; 3.4% in [19]. For the same compound, the inhibition is -1.7% in [20]; 1.1% in [22]; -5.3% in [23]; 4% in [24]; 2.3% in series [25]; 0.5% in [26]. In addition, the inhibition in series [27] is 0.5%; in [28], -2.3%; in [29], -1.1%; in series [30], -4.7%. For the same compound, the inhibition at 60 min, 10 µM in [8] is -13.8% (not active). For the same compound, in series [21], the half-inhibitory concentration (IC50) is given as > 10 µM (not active).
In the case of `Cc1noc(C)c1-c1cnc2cc(C(=O)NCCC[n+]3ccc(N(C)C)cc3)ccn12`, the pKi in series [31] (read-out: Ki) is 6.67. For the same compound, the Ki in series [31] (read-out: pKi (converted)) is 0.182 µM. Also, the inhibition in [32] was -6.93%.
